From ChEMBL document CHEMBL1155591, “New anabaenopeptins, potent carboxypeptidase-A inhibitors from the cyanobacterium Aphanizomenon flos-aquae” (J Nat Prod, 2000) come the findings set out here.

SMILES strings stand for the structures. The source made the active and inactive calls. No cut-off for these calls is given here. Starred links: 1 amine or outer side, 2 acyl side, 3 side chain; linkers in the order of their positions; H or OH if unused. Positions of bridges follow the written chain, without caps; N, C: chain ends. Non-standard residues stand in square brackets, D forms with d. Residues, ends and D or L forms follow the SMILES beside them. NMehTyr = CN[C@@H](CCc1ccc(O)cc1)C(=O)O; hTyr = N[C@@H](CCc1ccc(O)cc1)C(=O)O; NMeA = CN[C@@H](C)C(=O)O; CO = O=C([*:1])[*:2]

The target of assay [1] is T1, Carboxypeptidase A1 (Homo sapiens) (UniProt P15085).
T1 sequence (whole entry): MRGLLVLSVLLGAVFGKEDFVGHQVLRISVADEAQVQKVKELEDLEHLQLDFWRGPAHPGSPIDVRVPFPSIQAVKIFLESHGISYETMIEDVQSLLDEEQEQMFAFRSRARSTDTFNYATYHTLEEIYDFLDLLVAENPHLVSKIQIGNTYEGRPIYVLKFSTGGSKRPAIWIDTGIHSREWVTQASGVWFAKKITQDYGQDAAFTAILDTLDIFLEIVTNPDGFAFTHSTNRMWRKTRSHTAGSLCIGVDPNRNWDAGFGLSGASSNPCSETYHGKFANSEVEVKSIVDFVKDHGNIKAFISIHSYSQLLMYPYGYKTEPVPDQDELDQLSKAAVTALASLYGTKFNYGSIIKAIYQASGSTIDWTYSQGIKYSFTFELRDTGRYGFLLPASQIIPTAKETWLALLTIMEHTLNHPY
The assay is described as follows: Inhibition of carboxypeptidase A at 10 ug/ml.

In assay [2] the target is T2, Carboxypeptidase A1 (Homo sapiens, UniProt P15085).
T2 sequence (P15085 whole entry): T1 sequence (whole entry)
The assay is described as follows: Inhibition of carboxypeptidase A.

In the case of `CC(C)[C@@H]1NC(=O)[C@H](NC(=O)N[C@@H](CCCNC(=N)N)C(=O)O)CCCCNC(=O)[C@H](Cc2ccccc2)NC(=O)[C@H](C)N(C)C(=O)[C@H](CCc2ccc(O)cc2)N(C)C1=O`, the outcome in assay [1] was inactive.

Turning to `CC[C@H](C)[C@@H]1NC(=O)[C@H](NC(=O)N[C@@H](CCCNC(=N)N)C(=O)O)CCCCNC(=O)[C@H](Cc2ccccc2)NC(=O)[C@H](C)N(C)C(=O)[C@H](CCc2ccc(O)cc2)NC1=O` ({Arg-CO}-[dK]I[hTyr][NMeA]F; lactam 1-C), the result in assay [1] was inactive. The same measure, in the same setting: then `CC(C)[C@@H]1NC(=O)[C@H](NC(=O)N[C@@H](CCCNC(=N)N)C(=O)O)CCCCNC(=O)[C@H](Cc2ccccc2)NC(=O)[C@H](C)N(C)C(=O)[C@H](CCc2ccc(O)cc2)NC1=O` ({Arg-CO}-[dK]V[hTyr][NMeA]F; lactam 1-C), with “inactive”. In the case of `CC[C@H](C)[C@@H]1NC(=O)[C@H](NC(=O)N[C@@H](Cc2ccc(O)cc2)C(=O)O)CCCCNC(=O)[C@H]([C@@H](C)CC)NC(=O)[C@H](CCc2ccc(O)cc2)N(C)C(=O)[C@H](CCc2ccc(O)cc2)NC1=O` [ANABAENOPEPTIN G] ({Tyr-CO}-[dK]I[hTyr][NMehTyr]I; lactam 1-C), half-maximal inhibition in assay [2] (IC50) required 7.53 nM. The same measure, in the same setting: then `CC[C@H](C)[C@@H]1NC(=O)[C@H](NC(=O)N[C@@H](CCCNC(=N)N)C(=O)O)CCCCNC(=O)[C@H]([C@@H](C)CC)NC(=O)[C@H](CCc2ccc(O)cc2)N(C)C(=O)[C@H](CCc2ccc(O)cc2)NC1=O` [ANABAENOPEPTIN H] ({Arg-CO}-[dK]I[hTyr][NMehTyr]I; lactam 1-C), with 3680 nM; and `CC[C@H](C)[C@H](NC(=O)N[C@@H]1CCCCNC(=O)[C@H](CC(C)C)NC(=O)[C@H](C)N(C)C(=O)[C@H](CCc2ccc(O)cc2)NC(=O)[C@H](C(C)C)NC1=O)C(=O)O` [ANABAENOPEPTIN I] ({Ile-CO}-[dK]V[hTyr][NMeA]L; lactam 1-C), with 6.84 nM. In assay [2], `CC[C@H](C)[C@H](NC(=O)N[C@@H]1CCCCNC(=O)[C@H](Cc2ccccc2)NC(=O)[C@H](C)N(C)C(=O)[C@H](CCc2ccc(O)cc2)NC(=O)[C@H](C(C)C)NC1=O)C(=O)O` [ANABAENOPEPTIN J] ({Ile-CO}-[dK]V[hTyr][NMeA]F; lactam 1-C) showed an IC50 of 9.57 nM. In the case of `CC[C@H](C)[C@H](NC(=O)N[C@@H]1CCCCNC(=O)[C@H]([C@@H](C)CC)NC(=O)[C@H](CCc2ccc(O)cc2)N(C)C(=O)[C@H](CCc2ccc(O)cc2)NC(=O)[C@H](C(C)C)NC1=O)C(=O)O` [ANABAENOPEPTIN T] ({Ile-CO}-[dK]V[hTyr][NMehTyr]I; lactam 1-C), in assay [2], the IC50 is 25.4 nM.

The IC50 is the concentration that gives 50% inhibition. Low readings indicate inhibition by little substance, high ones a need for much substance.
